Data as given in article PMC8214221, “Sequence determinants in the cathelicidin LL-37 that promote inflammation via presentation of RNA to scavenger receptors” (The Journal of Biological Chemistry, 2021).
Residues, ends and D or L forms follow the SMILES beside them.

Test system: normal human epidermal keratinocytes (NHEKs)
Test: LDH release cytotoxicity assay in keratinocytes
Assay type: cell-based
Conditions: minimal concentration giving 50% LDH release by NHEKs
Description: Since LL-34 was the minimal truncation mutant of LL-37 that retained both antimicrobial and immune modulatory activity, we prepared a series of synthetic peptides with sequential substitutions of alanine at each amino acid position of the LL-34 parent peptide (Table 1). We compared the minimum inhibitory concentration (MIC) for the LL-34 parent peptide and the alanine mutants (LL-34 peptides—L1A and R34A) against methicillin-resistant Staphylococcus aureus strain USA300 (Fig. 1A). LL-34 peptides were incubated at concentrations of 0 to 100 μM with bacteria. The minimal concentration at which no growth was observed was noted after 18 h of incubation. […] Because of these changes in the MIC against S. aureus between the mutants, we investigated the effective toxicity profile of the peptides in normal human epidermal keratinocytes (NHEKs) by lactate dehydrogenase (LDH) release assay (Table 1). […] Most other peptides were cytotoxic at a minimal concentration of 10 μM, whereas LL-34—K15A was toxic at a concentration of 2.5 μM.
LDH cytotoxicity assay was performed according to manufacturer's instructions (Thermo Fisher Scientific). Culture supernatants from keratinocytes were used fresh for LDH assay after experimental treatments.

Row | Compound | Minimal cytotoxic concentration in NHEK (LD50) [µM]
1 | CC[C@H](C)[C@H](NC(=O)[C@H](CCCCN)NC(=O)[C@H](CCC(=O)O)NC(=O)[C@H](C)NC(=O)[C@H](CO)NC(=O)[C@H](CCCCN)NC(=O)[C@H](CCCNC(=N)N)NC(=O)[C@H](Cc1ccccc1)NC(=O)[C@H](Cc1ccccc1)NC(=O)[C@H](CC(=O)O)NC(=O)CNC(=O)[C@H](CC(C)C)NC(=O)[C@@H](N)CC(C)C)C(=O)NCC(=O)N[C@@H](CCCCN)C(=O)N[C@@H](CCC(=O)O)C(=O)N[C@@H](Cc1ccccc1)C(=O)N[C@@H](CCCCN)C(=O)N[C@@H](CCCNC(=N)N)C(=O)N[C@H](C(=O)N[C@H](C(=O)N[C@@H](CCC(N)=O)C(=O)N[C@@H](CCCNC(=N)N)C(=O)N[C@H](C(=O)N[C@@H](CCCCN)C(=O)N[C@@H](CC(=O)O)C(=O)N[C@@H](Cc1ccccc1)C(=O)N[C@@H](CC(C)C)C(=O)N[C@@H](CCCNC(=N)N)C(=O)N[C@@H](CC(N)=O)C(=O)N[C@@H](CC(C)C)C(=O)N[C@H](C(=O)N1CCC[C@H]1C(=O)N[C@@H](CCCNC(=N)N)C(=O)O)C(C)C)[C@@H](C)CC)C(C)C)[C@@H](C)CC [LL-34—K10A] (H-LLGDFFRKSAEKIGKEFKRIVQRIKDFLRNLVPR-OH; N-terminus and C-terminus assumed) | 5
2 | CC[C@H](C)[C@H](NC(=O)[C@H](CCCCN)NC(=O)[C@H](CCC(=O)O)NC(=O)[C@H](CCCCN)NC(=O)[C@H](CO)NC(=O)[C@H](CCCCN)NC(=O)[C@H](C)NC(=O)[C@H](Cc1ccccc1)NC(=O)[C@H](Cc1ccccc1)NC(=O)[C@H](CC(=O)O)NC(=O)CNC(=O)[C@H](CC(C)C)NC(=O)[C@@H](N)CC(C)C)C(=O)NCC(=O)N[C@@H](CCCCN)C(=O)N[C@@H](CCC(=O)O)C(=O)N[C@@H](Cc1ccccc1)C(=O)N[C@@H](CCCCN)C(=O)N[C@@H](CCCNC(=N)N)C(=O)N[C@H](C(=O)N[C@H](C(=O)N[C@@H](CCC(N)=O)C(=O)N[C@@H](CCCNC(=N)N)C(=O)N[C@H](C(=O)N[C@@H](CCCCN)C(=O)N[C@@H](CC(=O)O)C(=O)N[C@@H](Cc1ccccc1)C(=O)N[C@@H](CC(C)C)C(=O)N[C@@H](CCCNC(=N)N)C(=O)N[C@@H](CC(N)=O)C(=O)N[C@@H](CC(C)C)C(=O)N[C@H](C(=O)N1CCC[C@H]1C(=O)N[C@@H](CCCNC(=N)N)C(=O)O)C(C)C)[C@@H](C)CC)C(C)C)[C@@H](C)CC [LL-34—R7A] (H-LLGDFFAKSKEKIGKEFKRIVQRIKDFLRNLVPR-OH; N-terminus and C-terminus assumed) | 5
3 | CC[C@H](C)[C@H](NC(=O)[C@H](CCCCN)NC(=O)[C@H](C)NC(=O)[C@H](CCCCN)NC(=O)[C@H](CO)NC(=O)[C@H](CCCCN)NC(=O)[C@H](CCCNC(=N)N)NC(=O)[C@H](Cc1ccccc1)NC(=O)[C@H](Cc1ccccc1)NC(=O)[C@H](CC(=O)O)NC(=O)CNC(=O)[C@H](CC(C)C)NC(=O)[C@@H](N)CC(C)C)C(=O)NCC(=O)N[C@@H](CCCCN)C(=O)N[C@@H](CCC(=O)O)C(=O)N[C@@H](Cc1ccccc1)C(=O)N[C@@H](CCCCN)C(=O)N[C@@H](CCCNC(=N)N)C(=O)N[C@H](C(=O)N[C@H](C(=O)N[C@@H](CCC(N)=O)C(=O)N[C@@H](CCCNC(=N)N)C(=O)N[C@H](C(=O)N[C@@H](CCCCN)C(=O)N[C@@H](CC(=O)O)C(=O)N[C@@H](Cc1ccccc1)C(=O)N[C@@H](CC(C)C)C(=O)N[C@@H](CCCNC(=N)N)C(=O)N[C@@H](CC(N)=O)C(=O)N[C@@H](CC(C)C)C(=O)N[C@H](C(=O)N1CCC[C@H]1C(=O)N[C@@H](CCCNC(=N)N)C(=O)O)C(C)C)[C@@H](C)CC)C(C)C)[C@@H](C)CC [LL-34—E11A] (H-LLGDFFRKSKAKIGKEFKRIVQRIKDFLRNLVPR-OH; N-terminus and C-terminus assumed) | 5
4 | CC[C@H](C)[C@H](NC(=O)[C@H](CCCCN)NC(=O)[C@H](CCC(=O)O)NC(=O)[C@H](CCCCN)NC(=O)[C@H](CO)NC(=O)[C@H](CCCCN)NC(=O)[C@H](CCCNC(=N)N)NC(=O)[C@H](Cc1ccccc1)NC(=O)[C@H](Cc1ccccc1)NC(=O)[C@H](CC(=O)O)NC(=O)[C@H](C)NC(=O)[C@H](CC(C)C)NC(=O)[C@@H](N)CC(C)C)C(=O)NCC(=O)N[C@@H](CCCCN)C(=O)N[C@@H](CCC(=O)O)C(=O)N[C@@H](Cc1ccccc1)C(=O)N[C@@H](CCCCN)C(=O)N[C@@H](CCCNC(=N)N)C(=O)N[C@H](C(=O)N[C@H](C(=O)N[C@@H](CCC(N)=O)C(=O)N[C@@H](CCCNC(=N)N)C(=O)N[C@H](C(=O)N[C@@H](CCCCN)C(=O)N[C@@H](CC(=O)O)C(=O)N[C@@H](Cc1ccccc1)C(=O)N[C@@H](CC(C)C)C(=O)N[C@@H](CCCNC(=N)N)C(=O)N[C@@H](CC(N)=O)C(=O)N[C@@H](CC(C)C)C(=O)N[C@H](C(=O)N1CCC[C@H]1C(=O)N[C@@H](CCCNC(=N)N)C(=O)O)C(C)C)[C@@H](C)CC)C(C)C)[C@@H](C)CC [LL-34—G3A] (H-LLADFFRKSKEKIGKEFKRIVQRIKDFLRNLVPR-OH; N-terminus and C-terminus assumed) | 20
5 | CC[C@H](C)[C@H](NC(=O)[C@H](CCCCN)NC(=O)[C@H](CCC(=O)O)NC(=O)[C@H](CCCCN)NC(=O)[C@H](CO)NC(=O)[C@H](CCCCN)NC(=O)[C@H](CCCNC(=N)N)NC(=O)[C@H](Cc1ccccc1)NC(=O)[C@H](Cc1ccccc1)NC(=O)[C@H](CC(=O)O)NC(=O)CNC(=O)[C@H](CC(C)C)NC(=O)[C@@H](N)CC(C)C)C(=O)NCC(=O)N[C@@H](CCCCN)C(=O)N[C@@H](C)C(=O)N[C@@H](Cc1ccccc1)C(=O)N[C@@H](CCCCN)C(=O)N[C@@H](CCCNC(=N)N)C(=O)N[C@H](C(=O)N[C@H](C(=O)N[C@@H](CCC(N)=O)C(=O)N[C@@H](CCCNC(=N)N)C(=O)N[C@H](C(=O)N[C@@H](CCCCN)C(=O)N[C@@H](CC(=O)O)C(=O)N[C@@H](Cc1ccccc1)C(=O)N[C@@H](CC(C)C)C(=O)N[C@@H](CCCNC(=N)N)C(=O)N[C@@H](CC(N)=O)C(=O)N[C@@H](CC(C)C)C(=O)N[C@H](C(=O)N1CCC[C@H]1C(=O)N[C@@H](CCCNC(=N)N)C(=O)O)C(C)C)[C@@H](C)CC)C(C)C)[C@@H](C)CC [LL-34—E16A] (H-LLGDFFRKSKEKIGKAFKRIVQRIKDFLRNLVPR-OH; N-terminus and C-terminus assumed) | 5
6 | CC[C@H](C)[C@H](NC(=O)[C@H](CCCCN)NC(=O)[C@H](CCC(=O)O)NC(=O)[C@H](CCCCN)NC(=O)[C@H](CO)NC(=O)[C@H](C)NC(=O)[C@H](CCCNC(=N)N)NC(=O)[C@H](Cc1ccccc1)NC(=O)[C@H](Cc1ccccc1)NC(=O)[C@H](CC(=O)O)NC(=O)CNC(=O)[C@H](CC(C)C)NC(=O)[C@@H](N)CC(C)C)C(=O)NCC(=O)N[C@@H](CCCCN)C(=O)N[C@@H](CCC(=O)O)C(=O)N[C@@H](Cc1ccccc1)C(=O)N[C@@H](CCCCN)C(=O)N[C@@H](CCCNC(=N)N)C(=O)N[C@H](C(=O)N[C@H](C(=O)N[C@@H](CCC(N)=O)C(=O)N[C@@H](CCCNC(=N)N)C(=O)N[C@H](C(=O)N[C@@H](CCCCN)C(=O)N[C@@H](CC(=O)O)C(=O)N[C@@H](Cc1ccccc1)C(=O)N[C@@H](CC(C)C)C(=O)N[C@@H](CCCNC(=N)N)C(=O)N[C@@H](CC(N)=O)C(=O)N[C@@H](CC(C)C)C(=O)N[C@H](C(=O)N1CCC[C@H]1C(=O)N[C@@H](CCCNC(=N)N)C(=O)O)C(C)C)[C@@H](C)CC)C(C)C)[C@@H](C)CC [LL-34—K8A] (H-LLGDFFRASKEKIGKEFKRIVQRIKDFLRNLVPR-OH; N-terminus and C-terminus assumed) | 5
7 | CC[C@H](C)[C@H](NC(=O)[C@H](CCCCN)NC(=O)[C@H](CCC(=O)O)NC(=O)[C@H](CCCCN)NC(=O)[C@H](CO)NC(=O)[C@H](CCCCN)NC(=O)[C@H](CCCNC(=N)N)NC(=O)[C@H](Cc1ccccc1)NC(=O)[C@H](Cc1ccccc1)NC(=O)[C@H](C)NC(=O)CNC(=O)[C@H](CC(C)C)NC(=O)[C@@H](N)CC(C)C)C(=O)NCC(=O)N[C@@H](CCCCN)C(=O)N[C@@H](CCC(=O)O)C(=O)N[C@@H](Cc1ccccc1)C(=O)N[C@@H](CCCCN)C(=O)N[C@@H](CCCNC(=N)N)C(=O)N[C@H](C(=O)N[C@H](C(=O)N[C@@H](CCC(N)=O)C(=O)N[C@@H](CCCNC(=N)N)C(=O)N[C@H](C(=O)N[C@@H](CCCCN)C(=O)N[C@@H](CC(=O)O)C(=O)N[C@@H](Cc1ccccc1)C(=O)N[C@@H](CC(C)C)C(=O)N[C@@H](CCCNC(=N)N)C(=O)N[C@@H](CC(N)=O)C(=O)N[C@@H](CC(C)C)C(=O)N[C@H](C(=O)N1CCC[C@H]1C(=O)N[C@@H](CCCNC(=N)N)C(=O)O)C(C)C)[C@@H](C)CC)C(C)C)[C@@H](C)CC [LL-34—D4A] (H-LLGAFFRKSKEKIGKEFKRIVQRIKDFLRNLVPR-OH; N-terminus and C-terminus assumed) | 5
